Measurements as given in PubChem BioAssay (NCI).
Several values for one entry are separate records, joined by “and”; a condition that tells them apart may be missing. Identical values can stand only once.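 96-well plates; 48 h exposure; 5 concentrations. Endpoints by linear interpolation between flanking doses. Not reached: highest tested concentration assigned. Here, GI50 denotes the concentration required for 50% inhibition of growth. TGI denotes the concentration required for complete inhibition of growth.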

Assays:
Assay in all cases: DTP human tumour cell line panel, 48 h
A498 renal = system: A498 renal
HCC-2998 colon = system: HCC-2998 colon
K-562 leukemia = system: K-562 leukemia
M14 melanoma = system: M14 melanoma
MOLT-4 leukemia = system: MOLT-4 leukemia
OVCAR-3 ovarian = system: OVCAR-3 ovarian
OVCAR-5 ovarian = system: OVCAR-5 ovarian
SNB-19 CNS = system: SNB-19 CNS
SW-620 colon = system: SW-620 colon
T-47D breast = system: T-47D breast

Structure (SMILES) | GI50 (A498 renal) | TGI (A498 renal) | GI50 (HCC-2998 colon) | TGI (HCC-2998 colon) | GI50 (K-562 leukemia) | TGI (K-562 leukemia) | GI50 (M14 melanoma) | TGI (M14 melanoma) | GI50 (MOLT-4 leukemia) | TGI (MOLT-4 leukemia) | GI50 (OVCAR-3 ovarian) | TGI (OVCAR-3 ovarian) | GI50 (OVCAR-5 ovarian) | TGI (OVCAR-5 ovarian) | GI50 (SNB-19 CNS) | TGI (SNB-19 CNS) | GI50 (SW-620 colon) | TGI (SW-620 colon) | GI50 (T-47D breast) | TGI (T-47D breast)
NC(=S)c1c(N)n(C2OC(CO)C(O)C2O)c2ncnc(N)c12 (centres undefined) | 211 nM | 0.522 µM | 204 nM | 0.801 µM | 62.2 nM | 0.494 µM | 178 nM | 0.648 µM | 245 nM | 0.927 µM | 287 nM | 1.2 µM | 0.342 µM | 2.92 µM | 0.962 µM | > 100 µM | 177 nM | 0.836 µM | 238 nM | 1.17 µM
C=CC(=O)N1CC2(CC(n3nc(-c4ccc5c(cnn5C)c4)c(-c4c(Cl)c(C)cc5[nH]ncc45)c3C)C2)C1 | 3990 nM | 13.3 µM | 1850 nM | 3.36 µM | 2780 nM | > 100 µM | 2880 nM | 11.2 µM | 1740 nM | 9 µM | 1980 nM | 4.18 µM | 4.03 µM | 13.9 µM | 3.43 µM | 13.5 µM | 3230 nM | 10.3 µM | 3970 nM | 19.3 µM
CCN(CC)Cc1cc2[nH]c3c4ccc(Cl)cc4ncc3c2cc1OC | 15900 nM and 10000 nM | 29.4 µM and 21.7 µM | 2220 nM and 3330 nM | 6.79 µM and 13.6 µM | 3390 nM and 1890 nM | > 20.5 µM and 4.28 µM | 1880 nM | 3.59 µM and 3.4 µM | 2240 nM and 2560 nM | > 21.8 µM and 6.8 µM | 1890 nM and 2020 nM | 3.78 µM and 4.29 µM | 12.4 µM and 14.5 µM | 25.9 µM and 27.5 µM | 2.63 µM and 3.51 µM | 7.51 µM and 11.9 µM | 2300 nM and 1910 nM | 6.72 µM and 4.44 µM | 16500 nM and 17400 nM | 31.7 µM and 33.6 µM
CC[C@H](C)[C@H](NC(=O)CN(C)C)C(=O)N(C)[C@H](C[C@@H](OC(C)=O)c1nc(C(=O)NC23CC(C(=O)OC)(C2)C3)cs1)C(C)C | 1470 nM | > 25 µM | 490 nM | > 25 µM | 73.3 nM | > 25 µM | 99.5 nM | > 5.78 µM | 119 nM | > 25 µM | 80.4 nM | > 7.19 µM | > 6.63 µM | > 25 µM | 0.852 µM | > 25 µM | 163 nM | > 25 µM | > 25000 nM | > 25 µM
O=C(Nc1nc2ccccc2s1)Nc1ccc([N+](=O)[O-])cc1Cl | 5150 nM | 12.5 µM | 5650 nM | 25 µM | 3480 nM | > 100 µM | 7150 nM | 20.7 µM | 5920 nM | > 47.4 µM | 3050 nM | 8.17 µM | 10.4 µM | 25.7 µM | 8.2 µM | 26.7 µM | 2860 nM | 7.82 µM | 2860 nM | 11.7 µM
COc1cc2c3c(n(C)c(=O)c2cc1OC)-c1ccc(C#N)cc1C3=O | 64700 nM | > 100 µM | > 100000 nM | > 100 µM | > 100000 nM | > 100 µM | > 100000 nM | > 100 µM | > 100000 nM | > 100 µM | > 100000 nM | > 100 µM | > 100 µM | > 100 µM | > 100 µM | > 100 µM | > 100000 nM | > 100 µM | 91900 nM | > 100 µM
C=C1C(=O)OC2/C=C(/C)C(OC(C)=O)C/C=C(\C)C(OC(=O)C3(C)OC3C)C(O)C12 (centres undefined) |  | > 100 µM |  | > 100 µM |  | > 100 µM |  | > 100 µM |  | > 100 µM |  | > 100 µM |  | > 100 µM |  | > 100 µM |  | > 100 µM |  | > 100 µM
CCCCCCCCCCCCCC[C@@H](O)[C@H]1CC[C@H]([C@H]2CC[C@H]([C@H](O)CCCCCC[C@@H](O)CC3=C[C@H](C)OC3=O)O2)O1 | 3270 nM | > 25 µM |  | > 25 µM | 1470 nM | > 25 µM | 1740 nM | 3.44 µM and > 25 µM | 2010 nM | 8.81 µM and > 25 µM | 1530 nM | 3.21 µM and > 25 µM | 4.61 µM | > 25 µM | 1.75 µM | 7.71 µM and > 25 µM | 2440 nM | > 25 µM | 2140 nM | > 25 µM
CN1C(=O)C2(c3ccccc31)N(c1ccc(Cl)cc1)C(=O)C2(c1ccccc1)c1ccccc1 (centres undefined) | 34300 nM | > 100 µM | 66000 nM | > 100 µM | 4280 nM | 95.3 µM | 45300 nM | > 100 µM | 9860 nM | > 100 µM | 20200 nM | > 100 µM | > 100 µM | > 100 µM | 22.4 µM | > 100 µM | > 100000 nM | > 100 µM | 6290 nM | > 100 µM
COC(=O)[C@H]1CCCN1C(=O)[C@H]1CCCN1C(=O)[C@H](Cc1c[nH]c2ccccc12)NC(=S)Nc1cc(C(F)(F)F)cc(C(F)(F)F)c1 | 6540 nM | > 100 µM | 2420 nM | 5.96 µM | 5710 nM | > 100 µM | 7150 nM | 64.1 µM | 4880 nM | > 100 µM | 8430 nM | > 100 µM | 2.95 µM | 26.8 µM | 9.49 µM | > 100 µM | 9180 nM | > 100 µM | 3720 nM | > 100 µM
O=C(CN1C(=O)S/C(=C\C(Cl)=C\c2ccccc2)C1=O)NC1C=CS(=O)(=O)C1 (centres undefined) | 1420 nM | 4 µM | 1950 nM | 3.75 µM | 400 nM | > 100 µM | 1310 nM | 4.69 µM | 621 nM | > 100 µM | 729 nM | 2.33 µM | 2.31 µM | 6.13 µM | 2.76 µM | 11.5 µM | 553 nM | 2.86 µM | 917 nM | 8.19 µM
Cc1cc(Cl)nc(N(CCCNc2ccnc3cc(Cl)ccc23)Cc2ccco2)n1 | 1550 nM | 7.99 µM | 1970 nM | 5.67 µM | 1400 nM | 5.86 µM | 1880 nM | 4.08 µM | 1930 nM | 6.46 µM | 2480 nM | 10.3 µM | 3.12 µM | 22.6 µM | 3.46 µM | 14.7 µM | 2500 nM | 10.3 µM | 1730 nM | 6.43 µM
COc1ccc(N(C)c2nc(N)nc3sc4c(c23)CCCC4)cc1 | < 10 nM | < 0.0209 µM | < 14.6 nM | 12 µM | < 10 nM | > 42.2 µM | < 10 nM | 11.4 µM | < 12.5 nM | 28 µM | 25 nM | 14.2 µM | < 0.0125 µM | 19.5 µM | < 0.01 µM | 16.9 µM | < 10 nM | 16.4 µM | < 10 nM | 30.8 µM
COc1cc2cc(Oc3ccc(NC(=O)Nc4ccc(Cl)c(Cl)c4)cc3)c(C)nc2cc1OC | 1950 nM | 7.93 µM | 5540 nM | > 100 µM | 3330 nM | > 100 µM | 2560 nM | 10.5 µM | 3020 nM | 22.8 µM | 2340 nM | 6.19 µM | 10.1 µM | 34.3 µM | 4.26 µM | 24 µM | 4240 nM | 15.6 µM | 2700 nM | 10.1 µM
CSc1ccc2c(c1)C(N1CCN(C)CC1)Cc1ccccc1S2 (centres undefined) | 1370 nM | 25.8 µM and 2.8 µM | 1650 nM | 25.9 µM and 3.08 µM |  | 4.5 µM |  | 3.77 µM and 3.53 µM | 1890 nM | 8.67 µM and 3.87 µM | 2670 nM | 28 µM and 7.22 µM | 1.95 µM | 7.25 µM and 3.67 µM | 2.36 µM | 28.5 µM and 6.13 µM | 1690 nM | 20.6 µM and 3.42 µM | 2190 nM | 42.5 µM and 5.17 µM
CN1CSC(=S)N(Cc2ccccc2)C1 | 17 nM | 31.2 µM | 71000 nM | > 100 µM | 2810 nM | > 100 µM | 6650 nM | 21.8 µM | 11200 nM | > 100 µM | 3960 nM | 15 µM | 16.5 µM | 30.2 µM | 77.1 µM | > 100 µM | 3160 nM | 12.4 µM | 4780 nM | 23.4 µM
N#CC1c2ccccc2C=CN1C(=O)N(c1ccccc1)c1ccccc1 (centres undefined) | 7140 nM | 24.4 µM | 11100 nM | 23.9 µM | 3060 nM | > 100 µM | 2190 nM | 5.19 µM | 2440 nM | 7.45 µM | 1760 nM | 3.18 µM | 7.45 µM | 24.3 µM | 13.8 µM | 26.8 µM | 2270 nM | 5.3 µM | 1870 nM | 4.45 µM
N=c1c2c(=N)n3c(nc2nc2n1-c1ccccc1Sc1ccccc1-2)sc1cc(Cl)ccc13 | 1790 nM | 6.33 µM | 1320 nM | 4.97 µM | 1620 nM | > 100 µM | 4110 nM | > 100 µM | 2330 nM | > 100 µM | 1120 nM | 4.24 µM | 7.55 µM | 38.9 µM | 2.88 µM | 68.7 µM | 3140 nM | 71.1 µM | 2410 nM | 9.5 µM
CCn1c(-c2nonc2N)nc2cncc(C(=O)N3CC[C@H](N)C3)c21 | 1200 nM | > 25 µM | > 25000 nM | > 25 µM | > 25000 nM | > 25 µM | 24600 nM | > 25 µM | > 25000 nM | > 25 µM | > 25000 nM | > 25 µM | > 25 µM | > 25 µM | > 25 µM | > 25 µM | > 25000 nM | > 25 µM | 24900 nM | > 25 µM
Cn1c(-c2c(N)n(CCCN3CCOCC3)c3nc(C#N)c(C#N)nc23)nc2ccccc21 | 39400 nM | 92.5 µM | 20100 nM | 40 µM |  | > 74.7 µM | > 100000 nM | > 100 µM | 6730 nM | > 67.6 µM | 1800 nM | 13.4 µM | > 77.7 µM | > 100 µM | 23.8 µM | > 100 µM | 1740 nM | > 45 µM | 26200 nM | > 69.5 µM
Cn1ncc(Cl)c1-c1cc(C(=O)N[C@H](CN)Cc2ccc(F)c(F)c2)oc1Cl | 30.3 nM and 40.4 nM | 0.3 µM and 0.472 µM |  | 6.23 µM and 2.08 µM | 2340 nM and 3010 nM | 7.35 µM and > 8.68 µM | 1590 nM and 1490 nM | 5.7 µM and 3.71 µM | 93.1 nM and 100 nM | 2.25 µM and > 6.73 µM | 1970 nM and 1600 nM | 15 µM and > 10 µM | 0.426 µM and 2.45 µM | 9.12 µM and > 10 µM | 0.486 µM and 0.252 µM | 12.9 µM and > 10 µM | 7820 nM and 4100 nM | 21.8 µM and > 10 µM | 19.3 nM and 24.5 nM | 
